{
  "source": "patent US12070445B2",
  "about": "“System and assay for monitoring production/release of membrane-lytic toxins in bacteria and compounds for modulating same” (priority 2021, dated 2024)",
  "system": "S. aureus",
  "assay": "S. aureus growth (OD600)",
  "assay_type": "cell-based",
  "details": "S. aureus WT and QS mutant with vesicles, 12 hr",
  "description": "Microtiter plate vesicle lysis assays. Portions of media (2 or 10 mL) were inoculated with individual bacterial colonies and allowed to shake overnight. From these overnight cultures, subcultures were prepared by diluting the cultures 1:50 (v/v) in fresh BHI for S. aureus or 1:100 (v/v) in fresh LB for P. aeruginosa. An aliquot of each subculture (178 μL) was added to 20 μL of vesicle suspension and 2 μL of compound solution (dissolved in DMSO at 100× working concentration) in a clear-bottomed, black 96-well microtiter plate (Corning 3904). For controls, DMSO (vehicle) or Triton X-100 (1% final concentration) was substituted for compound. Plate covers were coated with an aqueous solution of 0.05% Triton X-100 and 20% ethanol (Brewster, 2003) to prevent the accumulation of condensation. Plates were incubated in a Biotek Synergy 2 microplate reader running Gen5 1.05 software at 37° C. with shaking at the high-speed setting. Fluorescence (excitation 500 nm, emission 540 nm) and OD600 (absorbance at 600 nm) measurements were recorded every 15 minutes for 12 hours. All experiments were performed in technical triplicate in a single microtiter plate. Biological triplicates were then obtained over three days. GraphPad Prism software (v. 9) was used to generate curves and calculate standard error.\nHigh-throughput screening and follow-up analysis protocols. Test compounds and positive control 1 were delivered in 2.5 nL aliquots of DMSO with an Echo 550 liquid handler (LabCyte Inc.) into black 384-well microtiter plates (Corning). All test compounds were tested at 10 μM; positive control 1 was tested at 250 nM. DMSO was used as a negative control. Overnight cultures (2 mL) of WT S. aureus (RN6390b) were grown at 37° C. with shaking at 200 rpm. These cultures were diluted 1:500 (v/v) in fresh BHI medium, at which point vesicle solutions were added to a final concentration of 1 mM phospholipid (as determined by ^31P NMR analyses). This vesicle-cell mixture was then added to the 384-well microtiter plates with a Multidrop 384 liquid-dispensing robot (Thermo Scientific) for a total volume of 50 μL per well. Plates were incubated statically for ˜24 hr at 37° C., at which point fluorescence (excitation 483, emission 530) and OD600 (absorbance at 600 nm) measurements were made using a CLARIOstarR Plus microtiter plate reader (BMG Labtech) running MARS data analysis software. Scatter plots were generated using the Collaborative Drug Discovery Vault informatics platform. […] Fluorescence (excitation 510, emission 544) and OD600 measurements were acquired with a PerkinElmer EnVision microtiter plate reader running Envision Manager software. […]",
  "data": [
    {"compound": "CC(C)c1ccc(S(=O)(=O)c2nnn3c2nc(O)c2ccccc23)cc1", "note": "[Compound 6, savirin]", "values": [
      {"measurement": "impact on cell growth", "value": "some effects on growth at later time points"}
    ]}
  ]
}
